# Measured values reported in patent publication US4623662A, “Antiatherosclerotic ureas and thioureas” (American Cyanamid Company, priority 1985, dated 1986).
# Target: T1, fatty acyl CoA: cholesterol acyl transferase (ACAT) (Rattus norvegicus, UniProt O70536)
# T1 construct: The supernatant, containing the microsomal fraction, served as the source of the cholesterol-esterifying enzyme; from tissue; host or cells: rat adrenals, supernatant of 1,000 x g centrifugation containing the microsomal fraction
# T1 sequence (O70536 1-545): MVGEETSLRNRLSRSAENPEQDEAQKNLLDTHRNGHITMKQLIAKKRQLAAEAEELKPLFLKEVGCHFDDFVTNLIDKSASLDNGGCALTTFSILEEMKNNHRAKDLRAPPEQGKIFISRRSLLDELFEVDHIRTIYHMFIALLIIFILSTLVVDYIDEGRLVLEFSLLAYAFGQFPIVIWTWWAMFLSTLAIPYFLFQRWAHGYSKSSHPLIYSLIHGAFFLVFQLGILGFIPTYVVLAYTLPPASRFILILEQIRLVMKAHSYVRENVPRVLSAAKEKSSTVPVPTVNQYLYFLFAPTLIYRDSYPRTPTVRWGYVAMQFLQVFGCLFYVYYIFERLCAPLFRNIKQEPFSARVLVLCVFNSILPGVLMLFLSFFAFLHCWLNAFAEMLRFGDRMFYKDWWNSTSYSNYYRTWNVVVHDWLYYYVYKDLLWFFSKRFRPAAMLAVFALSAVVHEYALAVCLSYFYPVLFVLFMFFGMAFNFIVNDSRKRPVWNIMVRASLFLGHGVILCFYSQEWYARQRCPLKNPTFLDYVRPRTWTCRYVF
# Assay: Inhibition of fatty acyl CoA:cholesterol acyl transferase (ACAT), rat adrenal enzyme
# Type: biochemical
# Details: rat adrenal ACAT; final concentration 5.2 μg/ml; read-out: % Inhibition
# Summary of the method: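 Enzyme source was the microsomal supernatant of rat adrenal homogenate (0.2M potassium phosphate, pH 7.4) with BSA, preincubated with compound (5.2 μg/ml final for single-point) for 10 min at 37° C. Then [14C]oleoyl CoA added, 10 min at 37° C. TLC-separated cholesteryl ester was counted; percent inhibition versus control, IC50 from several concentrations.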
row,SMILES,inhibition at 5.2 µg/mL [%]
1,"O=C(Nc1ccc(Cl)cc1Cl)N(Cc1ccc(Cl)cc1)Cc1cccc2ccccc12 [1-(4-Chlorobenzyl)-1-(1-naphthylmethyl)-3-(2,4-dichlorophenyl)urea]",92
2,CCCCCCCN(Cc1ccc(OCCCC)cc1)C(=O)Nc1ccc(Cl)cc1C(F)(F)F [1-(n-Heptyl)-(4-n-butoxybenzyl)-3-(2-trifluoromethyl-4-chlorophenyl)urea],89.4
3,"CCCCN(Cc1ccccc1)C(=O)Nc1cc(C)cc(C)c1 [1-Benzyl-1-( -n-butyl)-3-(3,5-dimethylphenyl)urea]",94.2
4,"CCCCOc1ccc(CN(Cc2ccccc2)C(=O)Nc2cc(Cl)c(Cl)cc2Cl)cc1 [1-Benzyl-1-(4-n-butyloxybenzyl)-3-(2,4,5-trichlorophenyl)urea]",89
5,CCCCc1ccc(CN(Cc2ccccc2)C(=O)Nc2ccc(CCCC)cc2)cc1 [1-Benzyl-1-(4-n-butylbenzyl)-3-(4-n-butylphenyl)urea],92
6,"CCCCc1ccc(CN(Cc2ccccc2)C(=O)Nc2c(C)cc(C)cc2C)cc1 [1-Benzyl-1-(4-n-butylbenzyl)-3-(2,4,6-trimethylphenyl)urea]",92.8
7,"CCCCN(Cc1ccccc1)C(=O)Nc1cccc(C)c1C [1-Benzyl-1-( -n-butyl)-3-(2,3-dimethylphenyl)urea]",85.8

# More lines, now with the values ahead:
row,inhibition at 5.2 µg/mL [%],SMILES
1,94.1,"CCCCCCCN(CCc1ccccc1)C(=O)Nc1ccc(F)cc1F [1-(n-Heptyl)-1-(2-phenylethyl)-3-(2,4-difluorophenyl)urea]"
2,81,"CCCCN(Cc1ccc(Br)cc1)C(=O)Nc1ccc(C)cc1C [1-(4-Bromobenzyl)-1-(n-butyl)-3-(2,4-dimethylphenyl)urea]"
3,97,"CCCCN(CCc1cccc(Br)c1)C(=O)Nc1ccc(C)cc1C [1-(n-Butyl)-1-[2-(3-bromophenyl)ethyl]-3-(2,4-dimethylphenyl)urea]"

# Same assay, conditions: rat adrenal ACAT; several concentrations
row,IC50 [nM],SMILES
1,110,"CCCCCCCN(Cc1ccc(CCCCCl)cc1)C(=O)Nc1c(C)cc(Cl)cc1C [1-(n-Heptyl)-1-[4-(4-chlorobutyl)benzyl]-3-(4-chloro-2,6-dimethylphenyl)urea]"
2,200,"CCCCCCCN(Cc1ccc(C(C)C)cc1)C(=O)Nc1c(C)cc(Cl)cc1C [1-(n-Heptyl)-1-[4-(isopropyl)benzyl]-3-(4-chloro-2,6-dimethylphenyl)urea]"
3,1740,CCCCCCCN(Cc1ccc(C(C)C)cc1)C(=O)Nc1ccc(Cl)cc1C [1-(n-Heptyl)-1-[4-(isopropyl)benzyl]-3-(4-chloro-2-methylphenyl)urea]
4,130,"CCCCCCCN(Cc1ccc(CCC(C)C)cc1)C(=O)Nc1c(C)cc(Cl)cc1C [1-(n-Heptyl)-1-[4-(isopentyl)benzyl]-3-(4-chloro-2,6-dimethylphenyl)urea]"

# Tested on: cholesterol absorption
# Assay: Inhibition of cholesterol absorption in rats fed 1% cholesterol:0.5% cholic acid diet
# Type: in vivo, male Sprague-Dawley rats
# Details: po, 336 h; rat; dose .01% of the diet, 2 weeks; read-out: LS (liver sterol), percentage of control values
# Protocol: Inhibition of cholesterol absorption was determined by feeding male Sprague-Dawley rats, weighing 150-170 g, a 1% cholesterol:0.5% cholic acid diet for 2 weeks. The diet also contained compounds being tested at a dose of 0.001, 0.003, 0.01, or 0.03% of the diet. Control rats were fed the same diet without any compound. At the end of the test, the rats were sacrificed by decapitation. Blood was collected, centrifuged at […] for 10 minutes at 4° C.; and the serum was then analyzed for cholesterol and triglycerides enzymatically by the method of Trinder, P., Analyst, 77, 321 (1952) on a Centrifichem 400 analyzer. Livers were removed, a 0.4 g sample was taken from the center of the large lobe, and the sample was subjected to saponification using 25% saturated potassium hydroxide in ethanol. The resulting neutral sterols were extracted with petroleum ether and the extract analyzed for cholesterol. The effectiveness of the compound in inhibiting cholesterol absorption was measured by the lowering of either serum cholesterol or liver cholesterol relative the values for control rats.
# Compounds which produced statistically significant inhibition of cholesterol absorption are considered to be active. Liver sterol (LS) and serum sterol (SS) values are expressed as a percentage of control values.
row,SMILES,response vs control in vivo at 0.01 % [%]
1,"CCCCCCCN(Cc1ccc(C(C)C)cc1)C(=O)Nc1c(C)cc(Cl)cc1C [1-(n-Heptyl)-1-[4-(isopropyl)benzyl]-3-(4-chloro-2,6-dimethylphenyl)urea]",20
2,CCCCCCCN(Cc1ccc(C(C)C)cc1)C(=O)Nc1ccc(Cl)cc1C [1-(n-Heptyl)-1-[4-(isopropyl)benzyl]-3-(4-chloro-2-methylphenyl)urea],75
3,"CCCCCCCN(Cc1ccc(CCC(C)C)cc1)C(=O)Nc1c(C)cc(Cl)cc1C [1-(n-Heptyl)-1-[4-(isopentyl)benzyl]-3-(4-chloro-2,6-dimethylphenyl)urea]",10

# Same assay, conditions: po, 336 h; rat; dose .01% of the diet, 2 weeks; read-out: SS (serum sterol), percentage of control values
row,SMILES,response vs control in vivo at 0.01 % [%]
1,"CCCCCCCN(Cc1ccc(C(C)C)cc1)C(=O)Nc1c(C)cc(Cl)cc1C [1-(n-Heptyl)-1-[4-(isopropyl)benzyl]-3-(4-chloro-2,6-dimethylphenyl)urea]",35
2,CCCCCCCN(Cc1ccc(C(C)C)cc1)C(=O)Nc1ccc(Cl)cc1C [1-(n-Heptyl)-1-[4-(isopropyl)benzyl]-3-(4-chloro-2-methylphenyl)urea],60
3,"CCCCCCCN(Cc1ccc(CCC(C)C)cc1)C(=O)Nc1c(C)cc(Cl)cc1C [1-(n-Heptyl)-1-[4-(isopentyl)benzyl]-3-(4-chloro-2,6-dimethylphenyl)urea]",17

# Same assay, conditions: po, 336 h; rat; dose .03% of the diet, 2 weeks; read-out: LS (liver sterol), percentage of control values
row,SMILES,response vs control in vivo at 0.03 % [%]
1,"CCCCCCCN(Cc1ccc(CCCCCl)cc1)C(=O)Nc1c(C)cc(Cl)cc1C [1-(n-Heptyl)-1-[4-(4-chlorobutyl)benzyl]-3-(4-chloro-2,6-dimethylphenyl)urea]",18
2,"O=C(Nc1ccc(Cl)cc1Cl)N(Cc1ccc(Cl)cc1)Cc1cccc2ccccc12 [1-(4-Chlorobenzyl)-1-(1-naphthylmethyl)-3-(2,4-dichlorophenyl)urea]",48
3,CCCCCCCN(Cc1ccc(OCCCC)cc1)C(=O)Nc1ccc(Cl)cc1C(F)(F)F [1-(n-Heptyl)-(4-n-butoxybenzyl)-3-(2-trifluoromethyl-4-chlorophenyl)urea],35
4,"CCCCN(Cc1ccccc1)C(=O)Nc1cc(C)cc(C)c1 [1-Benzyl-1-( -n-butyl)-3-(3,5-dimethylphenyl)urea]",75
5,"CCCCCCCN(CCc1ccccc1)C(=O)Nc1ccc(F)cc1F [1-(n-Heptyl)-1-(2-phenylethyl)-3-(2,4-difluorophenyl)urea]",57
6,"CCCCOc1ccc(CN(Cc2ccccc2)C(=O)Nc2cc(Cl)c(Cl)cc2Cl)cc1 [1-Benzyl-1-(4-n-butyloxybenzyl)-3-(2,4,5-trichlorophenyl)urea]",65
7,CCCCc1ccc(CN(Cc2ccccc2)C(=O)Nc2ccc(CCCC)cc2)cc1 [1-Benzyl-1-(4-n-butylbenzyl)-3-(4-n-butylphenyl)urea],61
8,"CCCCc1ccc(CN(Cc2ccccc2)C(=O)Nc2c(C)cc(C)cc2C)cc1 [1-Benzyl-1-(4-n-butylbenzyl)-3-(2,4,6-trimethylphenyl)urea]",13

# Same assay, conditions: po, 336 h; rat; dose .03% of the diet, 2 weeks; read-out: SS (serum sterol), percentage of control values
row,SMILES,response vs control in vivo at 0.03 % [%]
1,"CCCCCCCN(Cc1ccc(CCCCCl)cc1)C(=O)Nc1c(C)cc(Cl)cc1C [1-(n-Heptyl)-1-[4-(4-chlorobutyl)benzyl]-3-(4-chloro-2,6-dimethylphenyl)urea]",19
2,"O=C(Nc1ccc(Cl)cc1Cl)N(Cc1ccc(Cl)cc1)Cc1cccc2ccccc12 [1-(4-Chlorobenzyl)-1-(1-naphthylmethyl)-3-(2,4-dichlorophenyl)urea]",50
3,CCCCCCCN(Cc1ccc(OCCCC)cc1)C(=O)Nc1ccc(Cl)cc1C(F)(F)F [1-(n-Heptyl)-(4-n-butoxybenzyl)-3-(2-trifluoromethyl-4-chlorophenyl)urea],59
4,"CCCCN(Cc1ccccc1)C(=O)Nc1cc(C)cc(C)c1 [1-Benzyl-1-( -n-butyl)-3-(3,5-dimethylphenyl)urea]",93
5,"CCCCCCCN(CCc1ccccc1)C(=O)Nc1ccc(F)cc1F [1-(n-Heptyl)-1-(2-phenylethyl)-3-(2,4-difluorophenyl)urea]",59
6,"CCCCOc1ccc(CN(Cc2ccccc2)C(=O)Nc2cc(Cl)c(Cl)cc2Cl)cc1 [1-Benzyl-1-(4-n-butyloxybenzyl)-3-(2,4,5-trichlorophenyl)urea]",66
7,CCCCc1ccc(CN(Cc2ccccc2)C(=O)Nc2ccc(CCCC)cc2)cc1 [1-Benzyl-1-(4-n-butylbenzyl)-3-(4-n-butylphenyl)urea],53
8,"CCCCc1ccc(CN(Cc2ccccc2)C(=O)Nc2c(C)cc(C)cc2C)cc1 [1-Benzyl-1-(4-n-butylbenzyl)-3-(2,4,6-trimethylphenyl)urea]",53
